Assay results: patent US7981893B2, “Heteroaryl compounds, compositions thereof, and methods of treatment therewith” (Signal Pharmaceuticals, LLC, priority 2006, dated 2011)

Experiments:
PKCθ = target: T1, PKCθ (Homo sapiens, UniProt Q04759); assay: PKCθ IMAP Assay; assay type: biochemical; details: IMAP fluorescence polarization screening assay, 35 μM ATP
T1 construct: purchased Invitrogen
Description: The following is an example of an assay that can be used to determine the PKCθ inhibitory activity of a test compound. Reagents are prepared as follows:
Assay Buffer: 50 mM HEPES (pH 7.6), 10 mM MgCl, 0.1 mM EDTA, 5 mM MBP, 0.01% Triton, 1 mM DTT, 0.05 mg/ml phosphatidyl serine, 0.05 mg/ml diacylglycerol.
The final concentration of PKCθ (Invitrogen) is 0.5 nM. The final concentration of substrate (FAM-AKRRRLSSLRA) (Molecular Devices) is 100 nM. The final concentration of ATP in the reaction is 35 μM. The final concentration of DMSO in the reaction is 2.5%.
Enzyme is kept in 5 μl aliquots and stored at −80° C. prior to use. Test compound is allowed to pre-incubate with enzyme for 45 minutes before the reactions is initiated.
The reaction mixture consists of: 5 μl of test compound in 10% DMSO, 5 μl of 400 nM substrate (FAM-AKRRRLSSLRA), 5 μl of […] PKCθ, and 5 μl of 140 μM ATP (ATP is added to the reaction mixture last to initiate the reaction) per well.
The reaction is allowed to proceed for 60 minutes and is terminated by adding 30 μl per well of 90% Progressive A buffer/10% Progressive B buffer and a 1:400 dilution of binding beeds (Molecular Devices).
The reaction is given a binding incubation time of at least 30 minutes prior to reading the fluorescence polarization signal on an Analyst reader (the following detector settings are used: fluorescein excitation-485 nm, fluorescein emission-530 nm, fluorescein dichroic-505 nm).

mTOR = target: T2, mTOR (Homo sapiens, UniProt P42345); assay: mTOR HTR-FRET Assay; assay type: biochemical; details: HTR-FRET screening assay, GST-p70S6 kinase fragment substrate
T2 construct: Dilute TOR fraction 1:14 in “Simple TOR Buffer”
Description: The following is an example of an assay that can be used to determine the mTOR inhibitory activity of a test compound. Reagents are prepared as follows:
“Simple TOR buffer” (used to dilute high glycerol TOR fraction): 10 mM Tris pH 7.4, 100 mM NaCl, 0.1% Tween-20, 1 mM DTT (from 1M stock frozen at −20° C. just prior to use). For convenience a large quantity of “Simple TOR buffer” w/o DTT can be stored at 4° C. It can be brought to room temperature and DTT added just prior to dilution of TOR fraction.
5×KB/5×Mn/5×ATP solution (used to dilute substrate GST-p70S6kin 81 a.a. just prior to use) (40 ml screen quantity shown):
Enzyme solution: Dilute TOR fraction 1:14 in “Simple TOR Buffer”. For current lot that is 640 μg/ml TOR fraction diluted 14× to yield 45.7 μg/ml TOR in buffer (i.e. 7.85 ml TOR pooled fraction+102.1 ml Simple TOR buffer=110 ml 14× diluted TOR fraction). Each Enzyme Lot must be QC'd prior to assay.
Substrate solution: This may be prepared just prior to assay if preferred. Dilute 5.3 mg/ml GST-p70S6kinase fragment stock to 3.5 μg/ml (97 nM) working stock in 5×KB/5×Mn/5×ATP solution (i.e. 26.41 μL (5.3 mg/ml) GST-p70S6+40 ml 5×KB/5×Mn/5×ATP=40 ml 3.5 μg/ml (97 nM)).
Assay Buffer (for dilution of Antibodies used in Antibody Detection Reagent):
Antibody Detection Reagent (this reagent should be made just prior to addition to Assay Plates):
Using PlateTrak program (Screen) or Matrix Pipettor (SAR), 19.5 μL of diluted TOR fraction is added to assay plate in all test, reference or positive control wells. 19.5 μL of “Simple TOR buffer” is added to all negative control wells. If treating multiple plates with the same compounds, can increase volume of enzyme to multiples of 19.5 μL in a tall 384 well polypropylene plate.
Using EP3, 0.5 μl of test, reference or control DMSO is added to each well with mixing. Plates are incubated for 30 minutes at room temperature.
Using PlateTrak program (Screen) or Matrix Pipettor (SAR) 5 μL of 5×KB/5×Mn/5×ATP/5× substrate solution is added to each well of the assay plate to start the reaction. The solutions are mixed well and incubated for 2 hours at room temperature.
Using PlateTrak program (Screen) or Matrix Pipettor (SAR) 5 μL of 60 mM EDTA is added to stop the reaction. The solutions are mixed well and allowed to sit for 15-20 minutes before the next step.
Using PlateTrak program (Screen) or Matrix Pipettor (SAR) 10 μl of Antibody Detection Reagent is added. The solutions are mixes well and incubated for 5 hours to O/N to allow antibodies to form complexes with phosphorylated substrate.
Plates are read on AnalystHT using protocol Multi-Method protocol.

T1 sequence (Q04759 whole entry): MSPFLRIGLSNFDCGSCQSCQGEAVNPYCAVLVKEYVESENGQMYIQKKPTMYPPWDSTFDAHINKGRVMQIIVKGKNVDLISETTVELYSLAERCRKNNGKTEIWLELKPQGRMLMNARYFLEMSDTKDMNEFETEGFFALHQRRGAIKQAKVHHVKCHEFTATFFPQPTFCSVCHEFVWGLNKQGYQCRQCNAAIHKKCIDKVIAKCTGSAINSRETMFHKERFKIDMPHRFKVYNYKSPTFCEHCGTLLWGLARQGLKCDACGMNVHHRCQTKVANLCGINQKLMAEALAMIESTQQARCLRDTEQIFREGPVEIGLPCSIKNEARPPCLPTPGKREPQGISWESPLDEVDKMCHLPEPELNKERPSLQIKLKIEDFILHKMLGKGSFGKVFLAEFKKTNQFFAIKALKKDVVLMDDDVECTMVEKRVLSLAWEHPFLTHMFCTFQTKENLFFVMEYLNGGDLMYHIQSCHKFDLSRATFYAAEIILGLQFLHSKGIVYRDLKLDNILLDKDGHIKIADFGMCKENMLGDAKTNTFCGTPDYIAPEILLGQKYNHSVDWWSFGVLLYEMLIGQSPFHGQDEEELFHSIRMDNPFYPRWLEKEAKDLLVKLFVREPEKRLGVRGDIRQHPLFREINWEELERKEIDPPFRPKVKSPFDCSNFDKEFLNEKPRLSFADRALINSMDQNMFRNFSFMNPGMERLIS

Row | SMILES | IC50 (PKCθ) | IC50 (mTOR) | melting point
1 | C[C@@H](c1ccccc1)n1c(=O)[nH]c2ncc(-c3cccc4ncccc34)nc21 [Compound 5, (S)-1-(1-phenylethyl)-6-(quinolin-5-yl)-1H-imidazo[4,5-b]pyrazin-2(3H)-one] | > 30 µM | 5.1 to 10 µM | 
2 | C[C@H](c1ccccc1)n1c(=O)[nH]c2ncc(-c3cccc4ncccc34)nc21 [Compound 10, (R)-1-(1-phenylethyl)-6-(quinolin-5-yl)-1H-imidazo[4,5-b]pyrazin-2(3H)-one] | 0.1 to 5 µM | 10.1 to 20 µM | 
3 | O=c1[nH]c2ncc(-c3cccc4ncccc34)nc2n1Cc1ccccc1 [Compound 14, 1-benzyl-6-(quinolin-5-yl)-1H-imidazo[4,5-b]pyrazin-2(3H)-one] | > 30 µM | 0.1 to 5 µM | 
4 | C[C@H](c1ccccc1)n1c(=O)n(C)c2ncc(-c3cccc4ncccc34)nc21 [Compound 48, (R)-1-methyl-3-(1-phenylethyl)-5-(quinolin-5-yl)-1H-imidazo[4,5-b]pyrazin-2(3H)-one] | > 30 µM |  | 
5 | C[C@@H](c1ccccc1)n1c(=O)n(C)c2ncc(-c3cccc4ncccc34)nc21 [Compound 49, (S)-1-methyl-3-(1-phenylethyl)-5-(quinolin-5-yl)-1H-imidazo[4,5-b]pyrazin-2(3H)-one] | > 30 µM |  | 
6 | C[C@H](c1ccccc1)n1c(=O)[nH]c2ncc(-c3cccc4ncccc34)cc21 [Compound 62, (R)-1-(1-phenylethyl)-6-(quinolin-5-yl)-1H-imidazo[4,5-b]pyridin-2(3H)-one] | > 30 µM |  | 
7 | CC(c1ccc(S(C)(=O)=O)cc1)n1c(=O)[nH]c2ncc(-c3cccc4ncccc34)nc21 (centres unmarked) [Compound 66, 1-(1-(4-(methylsulfonyl)phenyl)ethyl)-6-(quinolin-5-yl)-1H-imidazo[4,5-b]pyrazin-2(3H)-one] | > 30 µM |  | 
8 | CC(c1ccncc1)n1c(=O)[nH]c2ncc(-c3cccc4ncccc34)nc21 (centres unmarked) [Compound 67, 1-(1-(pyridin-4-yl)ethyl)-6-(quinolin-5-yl)-1H-imidazo[4,5-b]pyrazin-2(3H)-one] | 20.1 to 30 µM |  | 
9 | O=c1[nH]c2ncc(-c3cccc4ncccc34)nc2n1CC1CCNCC1 [Compound 74, 1-(piperidin-4-ylmethyl)-6-(quinolin-5-yl)-1H-imidazo[4,5-b]pyrazin-2(3H)-one] | > 30 µM |  | 
10 | CC(c1ccccn1)n1c(=O)[nH]c2ncc(-c3cccc4ncccc34)nc21 (centres unmarked) [Compound 75, 1-(1-(pyridin-2-yl)ethyl)-6-(quinolin-5-yl)-1H-imidazo[4,5-b]pyrazin-2(3H)-one] | 10.1 to 20 µM |  | 
11 | CC(c1ccccc1)n1c(=O)[nH]c2ncc(-c3ccc(NS(C)(=O)=O)cc3)nc21 (centres unmarked) [Compound 78, N-(4-(2-oxo-3-(1-phenylethyl)-2,3-dihydro-1H-imidazo[4,5-b]pyrazin-5-yl)phenyl)methanesulfonamide] | > 30 µM |  | 
12 | O=c1[nH]c2ncc(-c3ccc(O)cc3)nc2n1CC1CCCC1 [Compound 87, 1-(cyclopentylmethyl)-6-(4-hydroxyphenyl)-1H-imidazo[4,5-b]pyrazin-2(3H)-one] |  | 0.1 to 5 µM | 296 to 297 °C
13 | CC(C)Cn1c(=O)[nH]c2ncc(-c3ccc(O)cc3)nc21 [Compound 89, 6-(4-hydroxyphenyl)-1-isobutyl-1H-imidazo[4,5-b]pyrazin-2(3H)-one] |  | 0.1 to 5 µM | 290 to 291 °C

Next, values leading:

Row | IC50 (PKCθ) | IC50 (mTOR) | melting point | SMILES
14 | > 30 µM | 0.1 to 5 µM |  | COc1cc(-c2cnc3[nH]c(=O)n(CC4CCOCC4)c3n2)cc(OC)c1OC [Compound 2, 1-((tetrahydro-2H-pyran-4-yl)methyl)-6-(3,4,5-trimethoxyphenyl)-1H-imidazo[4,5-b]pyrazin-2(3H)-one]
15 | > 30 µM | 0.1 to 5 µM |  | COc1cccc(Cn2c(=O)[nH]c3ncc(-c4ccc(S(C)(=O)=O)cc4)nc32)c1 [Compound 4, 1-(3-methoxybenzyl)-6-(4-(methylsulfonyl)phenyl)-1H-imidazo[4,5-b]pyrazin-2(3H)-one]
16 |  | 0.1 to 5 µM |  | O=c1[nH]c2ncc(-c3ccc(O)cc3)nc2n1CC1CCOCC1 [Compound 6, 6-(4-hydroxyphenyl)-1-((tetrahydro-2H-pyran-4-yl)methyl)-1H-imidazo[4,5-b]pyrazin-2(3H)-one]
17 | > 30 µM | 0.1 to 5 µM |  | COc1ccc(Cn2c(=O)[nH]c3ncc(-c4cccc5ncccc45)nc32)cc1 [Compound 15, 1-(4-methoxybenzyl)-6-(quinolin-5-yl)-1H-imidazo[4,5-b]pyrazin-2(3H)-one]
18 | > 30 µM |  |  | CC(c1ccccc1)n1c(=O)[nH]c2ncc(-c3cccc4ncccc34)cc21 (centres unmarked) [Compound 63, 1-(1-phenylethyl)-6-(quinolin-5-yl)-1H-imidazo[4,5-b]pyridin-2(3H)-one]
19 | 5.1 to 10 µM |  |  | CC(c1cccnc1)n1c(=O)[nH]c2ncc(-c3cccc4ncccc34)nc21 (centres unmarked) [Compound 76, 1-(1-(pyridin-3-yl)ethyl)-6-(quinolin-5-yl)-1H-imidazo[4,5-b]pyrazin-2(3H)-one]
20 | 20.1 to 30 µM |  |  | O=c1[nH]c2ncc(-c3cccc4ncccc34)nc2n1C1CCC(CO)CC1 (centres unmarked) [Compound 77, 1-((1s,4s)-4-(hydroxymethyl)cyclohexyl)-6-(quinolin-5-yl)-1H-imidazo[4,5-b]pyrazin-2(3H)-one]
21 |  | 5.1 to 10 µM |  | CC(c1ccccc1)n1c(=O)[nH]c2ncc(-c3cccc(N)c3)nc21 (centres unmarked) [Compound 80, 6-(3-aminophenyl)-1-(1-phenylethyl)-1H-imidazo[4,5-b]pyrazin-2(3H)-one]
22 |  | > 30 µM |  | CC(c1ccccc1)n1c(=O)[nH]c2ncc(-c3cccc(N(C)C)c3)nc21 (centres unmarked) [Compound 81, 6-(3-(dimethylamino)phenyl)-1-(1-phenylethyl)-1H-imidazo[4,5-b]pyrazin-2(3H)-one]
23 | > 30 µM |  |  | CC(c1ccccc1)n1c(=O)[nH]c2ncc(-c3ccc(C(F)(F)F)cc3)nc21 (centres unmarked) [Compound 83, 1-(1-phenylethyl)-6-(4-(trifluoromethyl)phenyl)-1H-imidazo[4,5-b]pyrazin-2(3H)-one]
24 |  | > 30 µM |  | CC(c1ccccc1)n1c(=O)oc2ncc(-c3cccc4ncccc34)nc21 (centres unmarked) [Compound 86, 3-(1-phenylethyl)-5-(quinolin-5-yl)oxazolo[5,4-b]pyrazin-2(3H)-one]
25 |  | 0.1 to 5 µM | 323 to 324 °C | CC(C)n1c(=O)[nH]c2ncc(-c3ccc(O)cc3)nc21 [Compound 88, 6-(4-hydroxyphenyl)-1-isopropyl-1H-imidazo[4,5-b]pyrazin-2(3H)-one]
26 |  | 0.1 to 5 µM | 271 to 272 °C | O=c1[nH]c2ncc(-c3ccc(O)cc3)nc2n1CC1CCCOC1 (centres unmarked) [Compound 90, 6-(4-hydroxyphenyl)-1-((tetrahydro-2H-pyran-3-yl)methyl)-1H-imidazo[4,5-b]pyrazin-2(3H)-one]
27 |  | 0.1 to 5 µM | 302 to 303 °C | O=c1[nH]c2ncc(-c3ccc(O)cc3)nc2n1CC1CCCCC1 [Compound 91, 1-(cyclohexylmethyl)-6-(4-hydroxyphenyl)-1H-imidazo[4,5-b]pyrazin-2(3H)-one]
